In patent US7217800B2, “Peptide leukotriene receptor” (Astellas Pharma Inc., priority 1999, dated 2007):

Columns and labels:
[1] = test system: human coronary arterial smooth muscle cells; experiment: Increase of intracellular Ca++ concentration by LTC4 in coronary arterial smooth muscle cells; type: cell-based
Experimental: The medium was discarded, and by adding 100 μl/well of Hanks BSS containing 4 μM Fluo-3, AM (Molecular Probe), 0.004% pluronic acid, 1% FBS, 20 mM HEPES, and 2.5 mM probenecid, the cells were incubated for 1 hour at 37° C. […] It is well known that the increase of intracellular Ca^++ concentration in blood vessel smooth muscle cells causes vasoconstriction (Bolton, T. B., et al. Physiol. Rev. (1979) 59, 606–718).

[2] = target: T1, pig LTC4 receptor (Sus scrofa, UniProt Q95N03); experiment: [3H]-LTC4 saturation binding, membrane fraction of COS-1 cells transfected with pEF-BOS-pig LTC4 receptor
T1 construct: expressed in transfected cells
T1 sequence (Q95N03 1-345): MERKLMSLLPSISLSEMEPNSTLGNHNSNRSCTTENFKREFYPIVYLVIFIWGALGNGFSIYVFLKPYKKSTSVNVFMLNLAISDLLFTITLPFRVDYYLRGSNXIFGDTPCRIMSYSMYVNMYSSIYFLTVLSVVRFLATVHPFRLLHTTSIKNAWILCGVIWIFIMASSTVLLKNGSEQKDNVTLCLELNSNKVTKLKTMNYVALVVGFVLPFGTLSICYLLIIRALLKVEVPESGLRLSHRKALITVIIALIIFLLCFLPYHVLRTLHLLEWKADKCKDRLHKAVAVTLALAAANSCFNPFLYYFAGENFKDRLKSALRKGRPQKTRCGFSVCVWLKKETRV
Experimental: 2×10^6 COS-1 cells were inoculated to a […] culture flask and cultured for 36 hours, and then, 50 μg of pEF-BOS-PSEC0146 or pEF-BOS (empty vector) was transfected using FuGENE6 (Boeringer Mannheim) Cells cultured for 36 hours following gene transfection were recovered and washed, then suspended in 20 mM Tris-HCl (pH 7.4), 5 mM EDTA and homogenized with a Polytron homogenizer. After ultracentrifugation, the homogenized cells were suspended in 50 mM HEPES (pH 7.4), 40 mM MgCl2, 1 mM EGTA as a membrane fraction. 0.5 to 14×10^−9 M of [^3H]-LTC4 (Daiichi Pure Chemicals) at final concentration was added to 5 μg of the membrane fraction, and incubated 1 hour at room temperature in 250 μl solution comprising 50 mM HEPES (pH 7.4), 40 mM MgCl2, 1 mM EGTA, 5 mM L-Serine, 10 mM Borate, 2 mM L-Cystein, and 2 mM L-Glycine. Thereafter, the membrane fraction was recovered on a glass filter using a cell harvester. Micro-scintillator was added to the glass filter and the total binding to the membrane fraction was measured by using a liquid scintillation counter. […]
First, to express the protein encoded by the cDNA, the cDNA was obtained by PCR using pig genomic DNA as the template. The nucleotide sequence of primers required for PCR was designed based on the nucleotide sequence information determined in Example 15. […]

[3] = target: T1, pig LTC4 receptor; experiment: Increase of intracellular Ca++ concentration, HEK293-EBNA cells transfected with pEF-BOS-pig LTC4 receptor; type: cell-based; settings: Logistic regression
Experimental: (§1) 2.5×10^4 cells per well of HEK293-EBNA cells were inoculated to 96 well Black/clear bottom plate, collagen type I coated (BECTON DICKINSON). After culturing for 24 hours, 40 ng per well of pEF-BOS-PSECO 146 or pEF-BOS (empty vector) were transfected into the cells using FuGENE6 (Boeringer Mannheim). 24 hours after gene transfection, the medium was discarded, 100 μl per well of DMEM containing 4 μM Fluo-3, AM (Molecular Probe), 0.004% pluronic acid, and 10% FBS was added and incubated for 1 hour at 37° C. Following incubation, cells were washed four times with Hanks BSS containing 20 mM HEPES (GIBCO), then 100 μl per well of Hanks BSS containing 20 mM HEPES was added. The time course of the changes of intracellular Ca^++ concentration was measured using FLIPR (Molecular Device).
Further, the changes of intracellular Ca^++ concentration were measured using HEK293-EBNA cells under the same condition as in Example 5.

[4] = target: T2, rat LTC4 receptor (Rattus norvegicus, UniProt Q924T9); experiment: Increase of intracellular Ca++ concentration, HEK293-EBNA cells transfected with pEF-BOS-rat LTC4 receptor; type: cell-based; settings: Logistic regression
T2 construct: expressed in transfected cells
T2 sequence (Q924T9 1-309): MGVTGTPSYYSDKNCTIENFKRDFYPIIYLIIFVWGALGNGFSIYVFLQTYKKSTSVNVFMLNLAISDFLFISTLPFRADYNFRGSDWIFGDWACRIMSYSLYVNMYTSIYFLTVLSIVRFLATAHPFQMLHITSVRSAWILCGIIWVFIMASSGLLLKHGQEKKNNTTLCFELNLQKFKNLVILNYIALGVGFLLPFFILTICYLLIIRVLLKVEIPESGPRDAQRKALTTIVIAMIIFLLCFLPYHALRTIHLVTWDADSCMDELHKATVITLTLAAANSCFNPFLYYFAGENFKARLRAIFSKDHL
Experimental: as §1
This plasmid was designated as pEF-BOS-rat LTC4 receptor.
The changes of intracellular Ca^++ concentration were measured using HEK293-EBNA cells under the same condition as in Example 5.

[5] = target: T3, LTC4 receptor (Homo sapiens, UniProt Q9NS75); experiment: Inhibition of [3H]-LTC4 binding, membrane fraction of CHO cells stably expressing LTC4 receptor; settings: 0.5×10^−9 M [3H]-LTC4; 15 μg CHO membrane fraction; 1 hour, room temperature
T3 construct: expressed in transfected cells; whole cells or membrane fraction
T3 sequence (Q9NS75 1-346): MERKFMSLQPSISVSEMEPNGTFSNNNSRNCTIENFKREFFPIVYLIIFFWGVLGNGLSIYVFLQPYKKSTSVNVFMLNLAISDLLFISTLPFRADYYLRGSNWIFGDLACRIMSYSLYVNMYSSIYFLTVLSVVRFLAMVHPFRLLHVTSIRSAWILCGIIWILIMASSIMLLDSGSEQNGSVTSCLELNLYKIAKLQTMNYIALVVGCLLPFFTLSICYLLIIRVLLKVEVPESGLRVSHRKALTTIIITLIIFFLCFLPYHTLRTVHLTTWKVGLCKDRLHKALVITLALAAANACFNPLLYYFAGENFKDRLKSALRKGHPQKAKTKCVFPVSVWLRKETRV
Experimental: Micro-scintillator was added to the glass filter and the radioactivity was measured by a liquid scintillation counter. […] Compound A was produced as follows.

[6] = target: T3, LTC4 receptor; experiment: Inhibition of increase of intracellular Ca++ concentration elicited by LTC4 or LTD4, CHO cells stably expressing LTC4 receptors; type: cell-based
Experimental: After culturing for 24 hours, medium was discarded and 100 μl/well of Hanks BSS containing 4 μM Fluo-3, AM (Molecular Probe), 0.004% pluronic acid, 1% FBS, 20 mM HEPES, and 2.5 mM probenecid was added, and incubated at 37° C. for 1 hour.
The changes of intracellular Ca^++ concentration were measured using FLIPR with the same condition as in Example 6.

[7] = target: T3, LTC4 receptor; experiment: Cell migration of CHO cells expressing LTC4 receptors elicited by LTC4; type: cell-based; settings: compound in upper layer, 3 nM LTC4 in lower layer
Experimental: After culturing for 4 hours in a CO2 incubator at 37° C., the frame filter was fixed in methanol and stained with Diff-Quik staining kit (Kokusai-Shiyaku). The upper surface (the side onto which the cells were inoculated) of the filter was wiped, and after air drying, absorbance at 595 nm was measured with the plate reader (Molecular Devices).

maximum binding (Bmax) ([2]; Scatchard analysis, COS-1 membrane fraction) [pmol/mg protein]	Kd ([2]; read-out: dissociation constant of LTC4 binding (Kd), Scatchard analysis, COS-1 membrane fraction) [nM]	IC50 [5] [nM]	IC50 [6] [nM]	inhibition of increase of intracellular Ca++ concentration elicited by LTD4 ([6]; CHO stable cells, LTD4 stimulus)	inhibition of cell migration by LTC4 [7]	SMILES	increase of intracellular Ca++ concentration ([1]; 10^−6 to 10^−9 M LTC4)	EC50 [3] [nM]	EC50 [4] [nM]	inhibition of increase of intracellular Ca++ concentration by LTC4 ([1]; 5 min pre-treatment)
0.25	2.89					CCCCC/C=C\C\C=C/C=C/C=C/[C@@H](SC[C@H](NC(=O)CC[C@H](N)C(=O)O)C(=O)NCC(=O)O)[C@@H](O)CCCC(=O)O [LTC4, leukotriene C4]	induce increase of the intracellular Ca^++ concentration in a dose-dependent manner	5	19	
		1200	2300	inhibited dose-dependently	inhibits dose-dependently	CCCn1c(-c2ccc3c(S(=O)(=O)Nc4onc(C)c4C)cccc3c2)nc2ccccc21 [Compound A, N-(3,4-dimethyl-5-isoxazolyl)-6-(1-propyl-1H-benzimidazol-2-yl) -1-naphthalenesulfonamide]				inhibit dose-dependently
						CCCCC/C=C\C\C=C/C=C/C=C/[C@@H](SC[C@H](N)C(=O)NCC(=O)O)[C@@H](O)CCCC(=O)O [LTD4, leukotriene D4]		3.3	7.7	
